Experimental data from patent US20120029187A1, “HALOALKYLSULFONANILIDE DERIVATIVE” (Nissan Chemical Industries, Ltd., priority 2009, published 2012).

Assays:
Type in all cases: in vivo
redroot pigweed [1] = experiment: Test Example 3: herbicidal effects in soil treatment; settings: dose 3.2 g/a
Outline: (§1)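 Seeds were sown in sterilized diluvial soil and covered with about 1.5 cm of soil. Compounds, formulated as emulsifiable concentrates and diluted with water, were sprayed evenly over the soil surface at set doses in g/a. Herbicidal effect was scored on a rating scale three weeks later.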

barnyardgrass [2] = experiment: as above; settings: dose 3.2 g/a
Outline: as §1

water foxtail [3] = experiment: as above; settings: dose 3.2 g/a
Outline: as §1

common ragweed [4] = experiment: as above; settings: dose 3.2 g/a
Outline: as §1

common chickweed [5] = experiment: as above; settings: dose 3.2 g/a
Outline: as §1

beadstraw [6] = experiment: as above; settings: dose 3.2 g/a
Outline: as §1

giant foxtail [7] = experiment: as above; settings: dose 3.2 g/a
Outline: as §1

large crabgrass [8] = experiment: as above; settings: dose 3.2 g/a
Outline: as §1

wild oat [9] = experiment: as above; settings: dose 3.2 g/a
Outline: as §1

common lambsquater [10] = experiment: as above; settings: dose 3.2 g/a
Outline: as §1

Italian ryegrass [11] = experiment: as above; settings: dose 3.2 g/a
Outline: as §1

posumbu knotweed [12] = experiment: as above; settings: dose 3.2 g/a
Outline: as §1

velvetleaf [13] = experiment: as above; settings: dose 3.2 g/a
Outline: as §1

transplanted rice = experiment: Test Example 1: preemergence treatment under submerged conditions, effect on crop; settings: dose 2.52 g/a
Outline: (§2)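 Weed seeds and 2.5-leaf rice seedlings shared each flooded cup of alluvial soil. Dosing, expressed as g per are, was by pouring water-diluted emulsifiable concentrate onto the surface on sowing day. Mortality was graded 0 to 5 after three weeks' growth.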

barnyardgrass [14] = experiment: Test Example 2: herbicidal effects during the vegetation period under submerged conditions; settings: treatment during the vegetation period under submerged conditions; dose 2.52 g/a
Outline: (§3)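 Barnyardgrass, bulrush and ducksalad were co-sown in alluvial soil flooded to 4 cm and grown in a greenhouse at 25 to 30° C. At the 1- or 2-leaf stage, water-diluted emulsifiable concentrates went onto the water surface at set doses (g/a). Herbicidal effect was scored three weeks later on a graded scale.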

ducksalad [15] = experiment: as above; settings: treatment during the vegetation period under submerged conditions; dose 2.52 g/a
Outline: as §3

bulrush [16] = experiment: as above; settings: treatment during the vegetation period under submerged conditions; dose 2.52 g/a
Outline: as §3

barnyardgrass [17] = experiment: Test Example 1: herbicidal effects in preemergence treatment under submerged conditions; settings: dose 2.52 g/a
Outline: as §2

ducksalad [18] = experiment: as above; settings: dose 2.52 g/a
Outline: as §2

bulrush [19] = experiment: as above; settings: dose 2.52 g/a
Outline: as §2

redroot pigweed [20] = experiment: Test Example 4: herbicidal effect in foliage treatment; settings: dose 3.2 g/a, three weeks after application
Outline: (§4)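 A uniform foliar spray of emulsifiable concentrate, diluted with water to give the stated g/a dose, was applied to plants raised for 14 days from seed in sterilized diluvial soil at 25 to 30° C. Herbicidal effects were scored three weeks later.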

barnyardgrass [21] = experiment: as above; settings: dose 3.2 g/a, three weeks after application
Outline: as §4

water foxtail [22] = experiment: as above; settings: dose 3.2 g/a, three weeks after application
Outline: as §4

common ragweed [23] = experiment: as above; settings: dose 3.2 g/a, three weeks after application
Outline: as §4

common chickweed [24] = experiment: as above; settings: dose 3.2 g/a, three weeks after application
Outline: as §4

beadstraw [25] = experiment: as above; settings: dose 3.2 g/a, three weeks after application
Outline: as §4

giant foxtail [26] = experiment: as above; settings: dose 3.2 g/a, three weeks after application
Outline: as §4

large crabgrass [27] = experiment: as above; settings: dose 3.2 g/a, three weeks after application
Outline: as §4

wild oat [28] = experiment: as above; settings: dose 3.2 g/a, three weeks after application
Outline: as §4

common lambsquater [29] = experiment: as above; settings: dose 3.2 g/a, three weeks after application
Outline: as §4

Italian ryegrass [30] = experiment: as above; settings: dose 3.2 g/a, three weeks after application
Outline: as §4

posumbu knotweed [31] = experiment: as above; settings: dose 3.2 g/a, three weeks after application
Outline: as §4

velvetleaf [32] = experiment: as above; settings: dose 3.2 g/a, three weeks after application
Outline: as §4

SMILES | K: redroot pigweed, herbicidal effect (evaluation scale 0-5) (redroot pigweed [1]) | A: barnyardgrass, herbicidal effect (evaluation scale 0-5) (barnyardgrass [2]) | G: water foxtail, herbicidal effect (evaluation scale 0-5) (water foxtail [3]) | J: common ragweed, herbicidal effect (evaluation scale 0-5) (common ragweed [4]) | N: common chickweed, herbicidal effect (evaluation scale 0-5) (common chickweed [5]) | O: beadstraw, herbicidal effect (evaluation scale 0-5) (beadstraw [6]) | E: giant foxtail, herbicidal effect (evaluation scale 0-5) (giant foxtail [7]) | D: large crabgrass, herbicidal effect (evaluation scale 0-5) (large crabgrass [8]) | F: wild oat, herbicidal effect (evaluation scale 0-5) (wild oat [9]) | L: common lambsquater, herbicidal effect (evaluation scale 0-5) (common lambsquater [10]) | H: Italian ryegrass, herbicidal effect (evaluation scale 0-5) (Italian ryegrass [11]) | M: posumbu knotweed, herbicidal effect (evaluation scale 0-5) (posumbu knotweed [12]) | I: velvetleaf, herbicidal effect (evaluation scale 0-5) (velvetleaf [13]) | a: transplanted rice, effect on crop (evaluation scale 0-5) (transplanted rice) | A: barnyardgrass, herbicidal effect (evaluation scale 0-5) (barnyardgrass [14]) | C: ducksalad, herbicidal effect (evaluation scale 0-5) (ducksalad [15]) | B: bulrush, herbicidal effect (evaluation scale 0-5) (bulrush [16]) | A: barnyardgrass, herbicidal effect (evaluation scale 0-5) (barnyardgrass [17]) | C: ducksalad, herbicidal effect (evaluation scale 0-5) (ducksalad [18]) | B: bulrush, herbicidal effect (evaluation scale 0-5) (bulrush [19]) | other results
CCOC(=O)N(c1ccccc1CN1COC(C)(C)C(F)C1=O)S(=O)(=O)C(F)(F)F (stereo not drawn) [II-34] | 3 (mortality of at least 40% and less than 70%) | 5 (mortality of 90% or above (nearly complete death)) | 5 (mortality of 90% or above (nearly complete death)) | 4 (mortality of at least 70% and less than 90%) | 3 (mortality of at least 40% and less than 70%) | 4 (mortality of at least 70% and less than 90%) | 4 (mortality of at least 70% and less than 90%) | 5 (mortality of 90% or above (nearly complete death)) | 0 (mortality of less than 5% (almost ineffective)) | 3 (mortality of at least 40% and less than 70%) | 2 (mortality of at least 20% and less than 40%) | 5 (mortality of 90% or above (nearly complete death)) | 3 (mortality of at least 40% and less than 70%) | 0 (mortality of less than 5% (almost ineffective)) | 5 (mortality of 90% or above (nearly complete death)) | 5 (mortality of 90% or above (nearly complete death)) | 5 (mortality of 90% or above (nearly complete death)) | 5 (mortality of 90% or above (nearly complete death)) | 5 (mortality of 90% or above (nearly complete death)) | 5 (mortality of 90% or above (nearly complete death)) | K: redroot pigweed, herbicidal effect (redroot pigweed [20]): 2 (mortality of at least 20% and less than 40%); A: barnyardgrass, herbicidal effect (barnyardgrass [21]): 5 (mortality of 90% or above (nearly complete death)); G: water foxtail, herbicidal effect (water foxtail [22]): 5 (mortality of 90% or above (nearly complete death)); J: common ragweed, herbicidal effect (common ragweed [23]): 4 (mortality of at least 70% and less than 90%); N: common chickweed, herbicidal effect (common chickweed [24]): 4 (mortality of at least 70% and less than 90%); O: beadstraw, herbicidal effect (beadstraw [25]): 4 (mortality of at least 70% and less than 90%); E: giant foxtail, herbicidal effect (giant foxtail [26]): 3 (mortality of at least 40% and less than 70%); D: large crabgrass, herbicidal effect (large crabgrass [27]): 4 (mortality of at least 70% and less than 90%); F: wild oat, herbicidal effect (wild oat [28]): 0 (mortality of less than 5% (almost ineffective)); L: common lambsquater, herbicidal effect (common lambsquater [29]): 3 (mortality of at least 40% and less than 70%); H: Italian ryegrass, herbicidal effect (Italian ryegrass [30]): 4 (mortality of at least 70% and less than 90%); M: posumbu knotweed, herbicidal effect (posumbu knotweed [31]): 4 (mortality of at least 70% and less than 90%); I: velvetleaf, herbicidal effect (velvetleaf [32]): 3 (mortality of at least 40% and less than 70%)
CC(C)COC(=O)N(c1ccccc1CN1COC(C)(C)C(F)C1=O)S(=O)(=O)C(F)(F)F (stereo not drawn) [II-36] | 0 (mortality of less than 5% (almost ineffective)) | 5 (mortality of 90% or above (nearly complete death)) | 5 (mortality of 90% or above (nearly complete death)) | 4 (mortality of at least 70% and less than 90%) | 4 (mortality of at least 70% and less than 90%) | 4 (mortality of at least 70% and less than 90%) | 3 (mortality of at least 40% and less than 70%) | 4 (mortality of at least 70% and less than 90%) | 0 (mortality of less than 5% (almost ineffective)) | 0 (mortality of less than 5% (almost ineffective)) | 0 (mortality of less than 5% (almost ineffective)) | 4 (mortality of at least 70% and less than 90%) | 3 (mortality of at least 40% and less than 70%) | 0 (mortality of less than 5% (almost ineffective)) | 5 (mortality of 90% or above (nearly complete death)) | 5 (mortality of 90% or above (nearly complete death)) | 5 (mortality of 90% or above (nearly complete death)) | 5 (mortality of 90% or above (nearly complete death)) | 5 (mortality of 90% or above (nearly complete death)) | 5 (mortality of 90% or above (nearly complete death)) | K: redroot pigweed, herbicidal effect (redroot pigweed [20]): 0 (mortality of less than 5% (almost ineffective)); A: barnyardgrass, herbicidal effect (barnyardgrass [21]): 5 (mortality of 90% or above (nearly complete death)); G: water foxtail, herbicidal effect (water foxtail [22]): 4 (mortality of at least 70% and less than 90%); J: common ragweed, herbicidal effect (common ragweed [23]): 3 (mortality of at least 40% and less than 70%); N: common chickweed, herbicidal effect (common chickweed [24]): 3 (mortality of at least 40% and less than 70%); O: beadstraw, herbicidal effect (beadstraw [25]): 3 (mortality of at least 40% and less than 70%); E: giant foxtail, herbicidal effect (giant foxtail [26]): 3 (mortality of at least 40% and less than 70%); D: large crabgrass, herbicidal effect (large crabgrass [27]): 4 (mortality of at least 70% and less than 90%); F: wild oat, herbicidal effect (wild oat [28]): 0 (mortality of less than 5% (almost ineffective)); L: common lambsquater, herbicidal effect (common lambsquater [29]): 1 (mortality of at least 5% and less than 20%); H: Italian ryegrass, herbicidal effect (Italian ryegrass [30]): 2 (mortality of at least 20% and less than 40%); M: posumbu knotweed, herbicidal effect (posumbu knotweed [31]): 2 (mortality of at least 20% and less than 40%); I: velvetleaf, herbicidal effect (velvetleaf [32]): 2 (mortality of at least 20% and less than 40%)
